Here are results for 1 molecule from patent US20020119438A1, “METHOD FOR D[…] CELL COUNT” (priority 1995, published 2002).

Test [1] concerns MOLT-4 cells. The test can be described thus: Cytotoxicity assessment by MTT assay system. Type of test: cell-based, human. Particulars: two days incubation. A general note: Tetrazolium dyes change colour on reduction, which living cells bring about.
Test [2] deals with MOLT-4 cells. Briefly: Cytotoxicity assessment by method of the present invention (PO-PRO-1 Iodide fluorescence before/after Triton X-100). It is filed as cell-based, human. Particulars: two days incubation, from viable cell numbers.

Structures are written as SMILES. In brackets after ≈: the same amount, converted by molar mass.

By IC50 is commonly meant the concentration at which inhibition is half-maximal. Read a low IC50 as higher potency. As for `CO[C@@]12[C@H](COC(N)=O)C3=C(C(=O)C(C)=C(N)C3=O)N1C[C@@H]1N[C@@H]12` [Mitomycin C], the figures for the IC50 in the test with MOLT-4 cells [1] and with MOLT-4 cells [2] were 5.5 µg/mL (≈ 16.5 µM) and 2.2 µg/mL (≈ 6.58 µM), respectively.
